This passage reports IC50, GI50 and EC50 results from ChEMBL document CHEMBL2069256, “Development of Toxoplasma gondii calcium-dependent protein kinase 1 (TgCDPK1) inhibitors with potent anti-toxoplasma activity” (J Med Chem, 2012).

Series [1] addresses Proto-oncogene tyrosine-protein kinase Src (Homo sapiens, UniProt P12931).
Series [2] deals with Tyrosine-protein kinase ABL1 (Homo sapiens, UniProt P00519). The series can be described thus: Inhibition of human ABL using EAIYAAPFAKKK-OH as substrate by phosphor imaging method.
In series [3] the target is Tyrosine-protein kinase Lck (Homo sapiens, UniProt P06239). Briefly: Inhibition of human LCK using Ac-EIYGEFKKK-OH as substrate after 60 mins.
Series [4] has as its target Mitogen-activated protein kinase 14 (Homo sapiens, UniProt Q16539). Briefly: Inhibition of human p38alpha using myelin basic protein as substrate after 180 mins.
The target in the next series is T1, Ephrin type-A receptor 3 (Homo sapiens, UniProt P29320).
T1 sequence (P29320 whole entry): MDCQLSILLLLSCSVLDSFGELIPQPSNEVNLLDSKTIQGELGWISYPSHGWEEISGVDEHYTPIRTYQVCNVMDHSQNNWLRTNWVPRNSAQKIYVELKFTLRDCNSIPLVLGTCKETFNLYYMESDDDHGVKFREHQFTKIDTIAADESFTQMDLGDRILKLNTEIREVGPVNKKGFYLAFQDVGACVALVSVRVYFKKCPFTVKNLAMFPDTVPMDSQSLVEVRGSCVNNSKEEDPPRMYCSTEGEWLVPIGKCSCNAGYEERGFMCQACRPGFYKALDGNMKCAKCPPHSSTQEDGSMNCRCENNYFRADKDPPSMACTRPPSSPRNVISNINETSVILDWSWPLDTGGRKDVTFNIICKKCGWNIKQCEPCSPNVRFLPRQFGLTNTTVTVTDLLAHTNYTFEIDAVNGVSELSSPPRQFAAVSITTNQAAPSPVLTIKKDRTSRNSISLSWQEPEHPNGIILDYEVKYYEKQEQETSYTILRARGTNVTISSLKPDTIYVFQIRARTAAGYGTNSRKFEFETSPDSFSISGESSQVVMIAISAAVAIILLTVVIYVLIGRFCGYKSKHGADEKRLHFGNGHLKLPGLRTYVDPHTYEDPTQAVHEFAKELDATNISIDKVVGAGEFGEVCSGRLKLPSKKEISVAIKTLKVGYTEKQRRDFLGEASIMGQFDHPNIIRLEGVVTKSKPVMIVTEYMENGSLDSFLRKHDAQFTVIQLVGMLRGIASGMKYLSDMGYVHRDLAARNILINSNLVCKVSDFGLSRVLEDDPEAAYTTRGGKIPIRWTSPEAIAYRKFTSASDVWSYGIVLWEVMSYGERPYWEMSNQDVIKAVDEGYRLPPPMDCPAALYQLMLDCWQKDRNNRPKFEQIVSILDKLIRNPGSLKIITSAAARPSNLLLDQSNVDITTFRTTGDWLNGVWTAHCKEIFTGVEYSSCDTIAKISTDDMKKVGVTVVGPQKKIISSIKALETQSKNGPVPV
Briefly: Inhibition of human EPHA3 using myelin basic protein as substrate after 120 mins.

For series [5], the target named is Tyrosine-protein kinase CSK (Homo sapiens, UniProt P41240). The series can be described thus: Inhibition of human CSK using Ac-KKKKEEIYFFF-OH as substrate after 180 mins.
In series [6] the target is Epidermal growth factor receptor (Homo sapiens, UniProt P00533). Briefly: Inhibition of human EGFR using poly glu-Tyr as substrate after 30 mins.
The test system of the next series is HL-60. Briefly: Cytotoxicity against human HL60 cells assessed as inhibition of cell growth after 48 to 72 hrs by alamar blue assay. The format is cell-based. On the technique in general: The colour change of resazurin is a common sign of viable cells or microbes.
Series [7] in a line: Cytotoxicity against human CRL8155 cells assessed as inhibition of cell growth after 48 to 72 hrs by alamar blue assay. The format is cell-based.
Series [8] relates to Toxoplasma gondii. The series can be described thus: Antiparasitic activity against Toxoplasma gondii expressing CDPK1 Gly128Met mutant. The format is functional, organism-based.
Series [9] has as its system Toxoplasma gondii. The series can be described thus: microbe, parasite or virus in culture. The conditions noted are these: 44 h.
Series [10] can be described thus: Inhibition of Toxoplasma gondii CDPK1 using syntide-2 peptide as substrate after 90 mins by kinase glo-luciferase assay. Background: In Kinase-Glo more light means more ATP remaining.
A short description of series [11]: Inhibition of Toxoplasma gondii CDPK1 Gly128Met mutant using syntide-2 peptide as substrate after 90 mins by kinase glo-luciferase assay.

As to `CCOc1ccc2cc(-c3nn(CC4CCNCC4)c4ncnc(N)c34)ccc2n1`, the IC50 (in series [1]; in series [2]; in series [3]; in series [4]; on Ephrin type-A receptor 3; in [5]) was > 10 µM in each case. Besides, the IC50 in series [6] is > 10 µM. The GI50 (in the series on HL-60; in series [7]) was > 10 µM each time. Moreover, the EC50 in the series with Toxoplasma gondii [8] was 1 µM.
`COc1ccc2cc(-c3nn(CC4CCNCC4)c4ncnc(N)c34)ccc2c1`: the IC50 in [1] is > 10 µM; in series [2], > 10 µM; in [3] it was 0.62 µM; in [4], > 10 µM; on Ephrin type-A receptor 3 it was > 10 µM; in [5], > 10 µM. Also, in [6], the IC50 is > 10 µM. Moreover, the GI50 (in the series on HL-60; in series [7]) was > 10 µM in each case.
Take `CCOc1ccc2cc(-c3nn(C(C)C)c4ncnc(N)c34)ccc2c1`: the IC50 amounted to 0.052 µM in series [3], 3.7 µM against Ephrin type-A receptor 3, 3.1 µM in series [5] and 0.7 µM in [6].
Consider `CCOc1ccc2cc(-c3nn(CC4CCNCC4)c4ncnc(N)c34)ccc2c1`, for which the IC50 was > 10 µM in series [1]; > 10 µM in series [2]; 0.96 µM in series [3]; > 10 µM in series [4]; > 10 µM on Ephrin type-A receptor 3; 10 µM in series [5]. Also, the IC50 in [6] was > 10 µM. The GI50 (with HL-60; in [7]) was > 10 µM each time. In addition, the EC50 in the series with Toxoplasma gondii [8] turned out to be 1 µM; with Toxoplasma gondii [9], 0.052 µM.
Regarding `CCOc1ccc2cc(-c3nn(C4CCN(C)CC4)c4ncnc(N)c34)ccc2c1`, the IC50 in series [2] is > 10 µM; in series [3], 0.12 µM; in [4] it was > 10 µM; at Ephrin type-A receptor 3, > 10 µM; in [5] it was 10 µM; in series [6] it was > 10 µM. Also, the GI50 (in the series on HL-60; in series [7]) was > 10 µM each time. This compound also displayed an EC50 in the series with Toxoplasma gondii [9] of 0.05 µM.
Turning to `COc1ccc2cc(-c3nn(C(C)C)c4ncnc(N)c34)ccc2c1`, the IC50 in series [1] was 0.67 µM; in series [3] it was 0.079 µM; in [4] it was > 10 µM; on Ephrin type-A receptor 3, 1.6 µM; in [5] it was 2.6 µM; in series [6] it was 0.51 µM. Moreover, the GI50 (with HL-60; in [7]) was > 10 µM in each case.
Consider `CCOc1ccc2cc(-c3nn(CC4CCN(C(C)=O)CC4)c4ncnc(N)c34)ccc2c1`, for which the IC50 in [10] is 0.011 µM; in series [1], > 10 µM.
Consider `Nc1ncnc2c1c(-c1ccc3cc(OCc4ccc(Cl)cc4)ccc3c1)nn2CC1CCNCC1`, for which the 50% inhibitory concentration (IC50) in series [11] was 1.1 µM. The same compound came in with an EC50 in the series on Toxoplasma gondii [9] of 0.46 µM.
Regarding `CCOc1ccc2cc(-c3nn(CC4CCN(C)CC4)c4ncnc(N)c34)ccc2c1`, the IC50 is 0.0029 µM in [10]; > 10 µM in [1]; 4.6 µM in series [2]; 3.3 µM in series [3]; > 10 µM in [4]; > 10 µM at Ephrin type-A receptor 3. Further, the IC50 in series [5] and in series [6] was > 10 µM each time. The GI50 (in the series on HL-60; in [7]) was > 10 µM in each case. Also, the EC50 was 1 µM in the series with Toxoplasma gondii [8] and 0.14 µM in the series on Toxoplasma gondii [9].

By IC50 is commonly meant the concentration needed to halve the response being measured. A low value points to greater potency. One may read the GI50 as the concentration at which growth is held to half of that of the control. One may read the EC50 as the concentration needed to bring the measured effect to its halfway point.
